This passage reports IC50 results from patent US20240317721A1, “PYRAZOLYL DERIVATIVES AS INHIBITORS OF THE KRAS MUTANT PROTEIN” (NOVARTIS AG, priority 2021, published 2024).

For orientation: IC50 means the midpoint of a concentration-inhibition curve.

The target of the assay is KRasG12C (M1-K169, biotinylated on the N-terminus) (Homo sapiens (Human), UniProt P01116, G12C). As to the kind of experiment: Covalent competition assay: scintillation proximity assay (SPA) quantifying covalent modification of KRASG12C. The note with it: competition with radiolabeled covalent probe (Compound B/Compound A), 2 hours incubation, 10 nM KRasG12C. It is filed as binding. In short, it runs like this: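 Test compounds compete with a radiolabeled covalent probe for modification of N-terminally biotinylated KRasG12C(M1-K169):GDP, final 10 nM protein, 25 nM radio-ligand, 475 nM unlabelled ligand, 2 h with agitation in 20 mM Tris-HCl pH 7.5, 150 mM NaCl, 0.1 mM MgCl2, 0.01% Tween-20.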
Regarding `C=CC(=O)N1CC2(CC(n3nc(N4CC[C@@H](CN5C[C@H](O)C[C@@H](F)C5)CC4(C)C)c(-c4c(Cl)c(Cl)cc5[nH]ncc45)c3C)C2)C1` (single isomer, unassigned) [Example 300b, 1-(6-(4-(5,6-dichloro-1H-indazol-4-yl)-3-((R)-4-(((3R*,5R*)-3-fluoro-5-hydroxypiperidin-1-yl)methyl)-2,2-dimethylpiperidin-1-yl)-5-methyl-1H-pyrazol-1-yl)-2-azaspiro[3.3]heptan-2-yl)prop-2-en-1-one], the IC50 was found to be 13 nM.
Turning to `C=CC(=O)N1CC2(CC(n3nc(N4CC[C@@H](CN5CC6CC(C5)N6C(C)=O)CC4(C)C)c(-c4c(Cl)c(Cl)cc5[nH]ncc45)c3C)C2)C1` (single isomer, unassigned) [Example 301a], the IC50 was found to be 1900 nM.
As for `C=CC(=O)N1CC2(CC(n3nc(N4CC[C@@H](CN5CC6CC(C5)N6C(C)=O)CC4(C)C)c(-c4c(Cl)c(Cl)cc5[nH]ncc45)c3C)C2)C1` (single isomer, unassigned) [Example 301b], the figure is less than 5 nM; as for `C=CC(=O)N1CC2(CC(n3nc(N4CC[C@@H](CN5CCOCC56COC6)CC4(C)C)c(-c4c(C)c(Cl)cc5[nH]ncc45)c3C)C2)C1` (single isomer, unassigned) [Example 302a], greater than 5000 nM.
In the case of `C=CC(=O)N1CC2(CC(n3nc(N4CC[C@@H](CN5CCOCC56COC6)CC4(C)C)c(-c4c(C)c(Cl)cc5[nH]ncc45)c3C)C2)C1` (single isomer, unassigned) [Example 302b] it was 10 nM; in that of `C=CC(=O)N1CC2(CC(n3nc(N4CC[C@@H](CN5CCOC[C@@H]5CO)CC4(C)C)c(-c4c(Cl)c(Cl)cc5[nH]ncc45)c3C)C2)C1` (single isomer, unassigned) [Example 303a], 5000 nM.
In the case of `C=CC(=O)N1CC2(CC(n3nc(N4CC[C@@H](CN5CCOC[C@@H]5CO)CC4(C)C)c(-c4c(Cl)c(Cl)cc5[nH]ncc45)c3C)C2)C1` (single isomer, unassigned) [Example 303b] it was 5 nM; in that of `C=CC(=O)N1CC2(CC(n3nc(N4CC[C@@H](CN(C)S(=O)(=O)N5CCN(C)CC5)CC4(C)C)c(-c4c(Cl)c(Cl)cc5[nH]ncc45)c3C)C2)C1` (single isomer, unassigned) [Example 304a], greater than 5000 nM.
`C=CC(=O)N1CC2(CC(n3nc(N4CC[C@@H](CN(C)S(=O)(=O)N5CCN(C)CC5)CC4(C)C)c(-c4c(Cl)c(Cl)cc5[nH]ncc45)c3C)C2)C1` (single isomer, unassigned) [Example 304b]: the IC50 stood at 10 nM.
On to `C=CC(=O)N1CC2(CC(n3nc(N4CC[C@@H](CN5CCC6COCC65)CC4(C)C)c(-c4c(C)c(Cl)cc5[nH]ncc45)c3C)C2)C1` (single isomer, unassigned) [Example 305a, 1-(6-(4-(6-chloro-5-methyl-1H-indazol-4-yl)-3-((R)-4-(((3aR*,6aR*)-hexahydro-1H-furo[3,4-b]pyrrol-1-yl)methyl)-2,2-dimethylpiperidin-1-yl)-5-methyl-1H-pyrazol-1-yl)-2-azaspiro[3.3]heptan-2-yl)prop-2-en-1-one], for which the half-maximal inhibitory concentration (IC50) worked out at 2500 nM.
As for `C=CC(=O)N1CC2(CC(n3nc(N4CC[C@@H](CN5CCC6COCC65)CC4(C)C)c(-c4c(C)c(Cl)cc5[nH]ncc45)c3C)C2)C1` (single isomer, unassigned) [Example 305b, 1-(6-(4-(6-chloro-5-methyl-1H-indazol-4-yl)-3-((R)-4-(((3aR*,6aR*)-hexahydro-1H-furo[3,4-b]pyrrol-1-yl)methyl)-2,2-dimethylpiperidin-1-yl)-5-methyl-1H-pyrazol-1-yl)-2-azaspiro[3.3]heptan-2-yl)prop-2-en-1-one], the figure is 19 nM; as for `C=CC(=O)N1CC2(CC(n3nc(N4CC[C@@H](CN5CCC6COCC65)CC4(C)C)c(-c4c(C)c(Cl)cc5[nH]ncc45)c3C)C2)C1` (single isomer, unassigned) [Example 306a, 1-(6-(4-(6-chloro-5-methyl-1H-indazol-4-yl)-3-((R)-4-(((3aR*,6aR*)-hexahydro-1H-furo[3,4-b]pyrrol-1-yl)methyl)-2,2-dimethylpiperidin-1-yl)-5-methyl-1H-pyrazol-1-yl)-2-azaspiro[3.3]heptan-2-yl)prop-2-en-1-one], greater than 5000 nM; as for `C=CC(=O)N1CC2(CC(n3nc(N4CC[C@@H](CN5CCC6COCC65)CC4(C)C)c(-c4c(C)c(Cl)cc5[nH]ncc45)c3C)C2)C1` (single isomer, unassigned) [Example 306b, 1-(6-(4-(6-chloro-5-methyl-1H-indazol-4-yl)-3-((R)-4-(((3aR*,6aR*)-hexahydro-1H-furo[3,4-b]pyrrol-1-yl)methyl)-2,2-dimethylpiperidin-1-yl)-5-methyl-1H-pyrazol-1-yl)-2-azaspiro[3.3]heptan-2-yl)prop-2-en-1-one], 5 nM.
On to `C=CC(=O)N1CC2(CC(n3nc(N4CC[C@@H](CN5CCC56COC6)CC4(C)C)c(-c4c(Cl)c(Cl)cc5[nH]ncc45)c3C)C2)C1` (single isomer, unassigned) [Example 307a], for which the IC50 is greater than 5000 nM.
In the case of `C=CC(=O)N1CC2(CC(n3nc(N4CC[C@@H](CN5CCC56COC6)CC4(C)C)c(-c4c(Cl)c(Cl)cc5[nH]ncc45)c3C)C2)C1` (single isomer, unassigned) [Example 307b] it was 8 nM; in that of `C=CC(=O)N1CC2(CC(n3nc(N4CC[C@@H](CN5CC6COCC(C5)O6)CC4(C)C)c(-c4c(Cl)c(Cl)cc5[nH]ncc45)c3C)C2)C1` (single isomer, unassigned) [Example 308a], 747 nM; in that of `C=CC(=O)N1CC2(CC(n3nc(N4CC[C@@H](CN5CC6COCC(C5)O6)CC4(C)C)c(-c4c(Cl)c(Cl)cc5[nH]ncc45)c3C)C2)C1` (single isomer, unassigned) [Example 308b], 10 nM.
In the case of `C=CC(=O)N1CC2(CC(n3nc(N4CC[C@@H](CN5CCN(C(=O)CO)CC5)CC4(C)C)c(-c4c(Cl)c(Cl)cc5[nH]ncc45)c3C)C2)C1` (single isomer, unassigned) [Example 310a] it was 2900 nM.
In the case of `C=CC(=O)N1CC2(CC(n3nc(N4CC[C@@H](CN5CCN(C(=O)CO)CC5)CC4(C)C)c(-c4c(Cl)c(Cl)cc5[nH]ncc45)c3C)C2)C1` (single isomer, unassigned) [Example 310b] it was 7 nM.
As for `C=CC(=O)N1CC2(CC(n3nc(N4CC[C@@H](CN5CCOC6(C5)CN(C(C)=O)C6)CC4(C)C)c(-c4c(Cl)c(Cl)cc5[nH]ncc45)c3C)C2)C1` (single isomer, unassigned) [Example 311a], the 50% inhibitory concentration (IC50) came out at 1300 nM.
In the case of `C=CC(=O)N1CC2(CC(n3nc(N4CC[C@@H](CN5CCOC6(C5)CN(C(C)=O)C6)CC4(C)C)c(-c4c(Cl)c(Cl)cc5[nH]ncc45)c3C)C2)C1` (single isomer, unassigned) [Example 311b] it was 18 nM; in that of `C=CC(=O)N1CC2(CC(n3nc(N4CC[C@@H](CN5CCN6C(=O)OCC6C5)CC4(C)C)c(-c4c(Cl)c(Cl)cc5[nH]ncc45)c3C)C2)C1` (single isomer, unassigned) [Example 312a], 831 nM; in that of `C=CC(=O)N1CC2(CC(n3nc(N4CC[C@@H](CN5CCN6C(=O)OCC6C5)CC4(C)C)c(-c4c(Cl)c(Cl)cc5[nH]ncc45)c3C)C2)C1` (single isomer, unassigned) [Example 312b], 9 nM.
